# Source: ChEMBL document CHEMBL3804781, “Antitrypanosomal activity of 5-nitro-2-aminothiazole-based compounds” (Eur J Med Chem, 2016)
# The source made the active and inactive calls. No cut-off for these calls is given here.
# Tested on: not listed separately
# Assay: Selectivity index, ratio of IC50 for rat L6 cells to IC50 for amastigote stage of Trypanosoma cruzi Tulahuen C4 infected in rat L6 cells
# Format: toxicity, cell-based
# Settings: read-out: Ratio IC50
row,SMILES,selectivity ratio
1,COc1ccc(N2CCN(CC(=O)Nc3ncc([N+](=O)[O-])s3)CC2)cc1,14

# Tested on: Trypanosoma brucei
# Assay: Activity at recombinant His-tagged Trypanosoma brucei NTR assessed as oxidation of NADH/min/mg of protein after 5 mins by spectrophotometric analysis
# Settings: not given
row,Activity,SMILES
1,Active,O=C(Cn1ccnc1[N+](=O)[O-])NCc1ccccc1
2,inactive,O=C(CN1CCN(c2ccccn2)CC1)Nc1ncc([N+](=O)[O-])s1
3,Active,O=C(CN1CCN(c2ccc(C(F)(F)F)cc2)CC1)Nc1ncc([N+](=O)[O-])s1
4,inactive,O=C(CN1CCN(c2ccc(Cl)c(Cl)c2)CC1)Nc1ncc([N+](=O)[O-])s1
5,inactive,O=C(Nc1ncc([N+](=O)[O-])s1)c1ccc(-c2ccccc2)cc1
6,inactive,O=C(CN1CCN(C(c2ccccc2)c2ccc(Cl)cc2)CC1)Nc1ncc([N+](=O)[O-])s1 (centres undefined)
7,inactive,O=C(COc1ccc(-c2ccccc2)cc1)Nc1ncc([N+](=O)[O-])s1

# Tested on: Trypanosoma brucei brucei
# Assay: Antitrypanosomal activity against wild type bloodstream form of Trypanosoma brucei brucei assessed as inhibition of parasite growth after 3 days by resazurin assay
# Format: functional, organism-based
# Settings: 72 h
row,IC50,SMILES
1,21.6 µM,O=C(CN1CCN(c2ccccn2)CC1)Nc1ncc([N+](=O)[O-])s1
